The structures appear in SMILES notation. Where two headings read alike, the source gives them in different places.

In test [1] the target is adenylate cyclase. As to the kind of experiment: RWG biosensor DMR assay: NECA pretreatment, then forskolin-induced response. Conditions: quiescent A431 cells; NECA pretreatment 1 h, then 1 μM forskolin; read-out: IC50 of NECA pretreatment against the forskolin-induced response. The format is cell-based, Human. The method, then: (§1) The plate lid was handled automatically by the robotics.
Similarly, pretreatment of A431 cells with various concentrations of NECA for 1 h desensitizes adenylate cyclase and attenuates the forskolin-induced responses (FIG. 3B). […] Although not limited by theory a possible mechanism of cross-talk between these two pathways is that upon activation of adenylate cyclase by forskolin, cAMP is produced and activates PKA. PKA in turn may phosphorylate the Gs receptors, and cause complete inhibition of the Gs-mediated response. Accordingly, FIGS. 3A and 3B, respectively, illustrate: 3A) forskolin pretreatment on the NECA-induced Gs response; and 3B) of the effects NECA pretreatment on forskolin-induced responses in quiescent A431 cells.

For test [2], the system named is adenylate cyclase. Conditions: read-out: IC50 of histamine pretreatment against the forskolin response, quiescent A431 cells, then 1 μM forskolin, slight inhibition. How it is done:
(§2) Cell culture—Human epidermoid carcinoma A431 cells (American Type Cell Culture) were grown in Dulbecco's modified Eagle's medium (DMEM) supplemented with 10% fetal bovine serum (FBS), 4.5 g/liter glucose, 2 mM glutamine, and antibiotics. About 1.8×10^4 cells at passage 3 to 8 suspended in 50 μL of the DMEM medium containing 10% FBS were placed in each well of a 384-well microplate, and were cultured at 37° C. under air/5% CO2 for about 1 day, followed by about 20 hr starvation through continuously culturing in the serum-free DMEM.
(§3) Optical biosensor system and cell assays—CORNING® EPIC® wavelength interrogation system was used. […] Once stable temperature is reached (typically within 1 hr), a sensor microplate is transferred by the robotics into the plate holder directly above the detection system, while a source plate is moved to an appropriate compartment so that it is readily addressable by the on-board liquid handling unit. […]
(§4) For kinetic assays, the cells were washed with HBSS (Hanks Balanced Salt Solution with 20 mM HEPES) buffer. After 1 hour incubation within the detection system, the sensor plate was scanned and a baseline response was recorded. Then, compound solutions were transferred into the sensor plate using the on-board liquid handling system, and the cell responses were then recorded for another period of time. […]

Another test has as its system H1 histamine receptor. As to the kind of experiment: RWG biosensor DMR assay: forskolin pretreatment, then histamine-induced Gq response. The format is cell-based, Human. Conditions: quiescent A431 cells; forskolin pretreatment 1 h, then 100 nM histamine; read-out: IC50 of forskolin pretreatment, partial inhibition of histamine-induced response. The method, then:
as §2, §3, §4

The test system of test [3] is histamine receptor subtype 1. As to the kind of experiment: RWG biosensor DMR assay: U73122 pretreatment, then histamine-induced DMR signal. The format is cell-based, Human. The conditions noted are these: quiescent A431 cells.
Source text: as §1
Histamine is a natural agonist for endogenously expressed Gq-coupled receptor histamine receptor subtype 1 in A431 cells.

`CCNC(=O)[C@H]1O[C@@H](n2cnc3c(N)ncnc32)[C@H](O)[C@@H]1O` [NECA, N-ethyladenosine-5′-uronic acid]: the IC50 at adenylate cyclase [1] amounted to 1.3 nM.
Turning to `NCCc1c[nH]cn1` [histamine, Histamine], the IC50 in the test with adenylate cyclase [2] is 301 nM.
Regarding `C=C[C@@]1(C)CC(=O)[C@]2(O)[C@@]3(C)[C@@H](O)CCC(C)(C)[C@@H]3[C@H](O)[C@H](OC(C)=O)[C@@]2(C)O1` [forskolin, Forskolin], the half-maximal inhibitory concentration (IC50) in the test on H1 histamine receptor is about 184 nM.
`COc1ccc2c(c1)CC[C@@H]1[C@@H]2CC[C@]2(C)[C@@H](NCCCCCCN3C(=O)C=CC3=O)CC[C@@H]12` [U73122, 1-[6-[[17β-3-methoxyestra-1,3,5(10)-trien-17-yl]amino]hexyl]-1H-pyrrole-2,5-dione]: in test [3] (U73122 0-228 μM, then 1,000 nM histamine), the “effect of U73122 pretreatment on histamine-induced DMR response” value is “dose-dependent inhibition of the histamine-induced DMR response”. Further, in test [3] (high doses of U73122, 1,000 nM histamine), the “effect of U73122 at high doses on histamine response (P-DMR amplitude)” value is given as “completely inhibit the histamine response”.

Usually IC50 stands for the concentration that inhibits the measured activity by half.
